Here are results for three molecules from publication PMC7250897, “UDP-glucosyltransferase regulates grain size and abiotic stress tolerance associated with metabolic flux redirection in rice” (Nature Communications, 2020).

In data set [1] the target is T1, GSA1^WYJ (Oryza sativa, UniProt Q9AUV3, A246V).
T1 construct: gene Os03g0757500; full-length cDNA in pET21a (NdeI/NotI), E. coli BL21(DE3) pLysS, crude extract; WYJ allele A246, A349
T1 sequence (Q9AUV3 1-457 A246V): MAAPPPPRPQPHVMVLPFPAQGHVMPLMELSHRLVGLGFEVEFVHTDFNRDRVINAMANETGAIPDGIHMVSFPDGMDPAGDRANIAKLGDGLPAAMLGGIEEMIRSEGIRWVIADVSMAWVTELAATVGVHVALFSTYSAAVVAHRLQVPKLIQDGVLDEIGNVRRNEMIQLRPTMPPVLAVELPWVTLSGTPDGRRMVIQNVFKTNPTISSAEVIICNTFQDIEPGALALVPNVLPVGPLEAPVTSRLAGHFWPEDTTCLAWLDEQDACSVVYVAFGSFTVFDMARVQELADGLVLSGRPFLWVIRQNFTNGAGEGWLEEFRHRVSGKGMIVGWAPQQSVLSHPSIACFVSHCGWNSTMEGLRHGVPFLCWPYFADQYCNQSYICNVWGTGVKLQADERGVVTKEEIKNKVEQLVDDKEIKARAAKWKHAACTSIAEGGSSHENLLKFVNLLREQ
Kind of data set: HPLC glucosyltransferase assay, product peak area. Particulars: 250 μM acceptor, 1.5 mM UDP-glucose, 10 mM MgCl2, glycine-NaOH pH 8.6, 37 °C, 2 h.

Data set [2] addresses T2, GSA1^WYJ (Oryza sativa, UniProt Q9AUV3, A349T).
T2 construct: gene Os03g0757500; full-length cDNA in pET21a (NdeI/NotI), E. coli BL21(DE3) pLysS, crude extract; WYJ allele A246, A349
T2 sequence (Q9AUV3 1-457 A349T): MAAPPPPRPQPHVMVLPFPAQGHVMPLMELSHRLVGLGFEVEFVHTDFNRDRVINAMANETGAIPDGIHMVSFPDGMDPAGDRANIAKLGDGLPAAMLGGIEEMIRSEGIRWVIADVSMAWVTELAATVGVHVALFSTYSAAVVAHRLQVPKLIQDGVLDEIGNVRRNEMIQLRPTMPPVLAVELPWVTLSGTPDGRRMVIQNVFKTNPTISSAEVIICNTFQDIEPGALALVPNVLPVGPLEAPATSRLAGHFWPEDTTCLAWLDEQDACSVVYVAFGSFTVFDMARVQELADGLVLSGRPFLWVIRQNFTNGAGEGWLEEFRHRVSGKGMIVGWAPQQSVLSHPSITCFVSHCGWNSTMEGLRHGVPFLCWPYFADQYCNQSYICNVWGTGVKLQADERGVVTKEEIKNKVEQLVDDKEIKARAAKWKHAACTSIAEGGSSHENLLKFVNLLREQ
Kind of data set: HPLC glucosyltransferase assay, product peak area. Particulars: 250 μM acceptor, 1.5 mM UDP-glucose, 10 mM MgCl2, glycine-NaOH pH 8.6, 37 °C, 2 h.

Substrate in data set [3]: O=c1c(O)c(-c2ccc(O)cc2)oc2cc(O)cc(O)c12
The data set is described as follows: cells, lysate or membranes. Particulars: sugar acceptor, UDP-glucose as donor, assay buffer 10 mM MgCl2, glycine-NaOH pH 8.6, 37 °C.

Substrate in data set [4]: O=c1ccn([C@@H]2O[C@H](CO[P@@](=O)(O)O[P@@](=O)(O)O[C@H]3O[C@H](CO)[C@@H](O)[C@H](O)[C@H]3O)[C@@H](O)[C@H]2O)c(=O)[nH]1
The data set is described as follows: HPLC glucosyltransferase assay, kinetics. Particulars: sugar donor, kaempferol as acceptor, 10 mM MgCl2, glycine-NaOH pH 8.6, 37 °C. It counts as biochemical, Oryza sativa.

For `O=c1c(O)c(-c2ccc(O)cc2)oc2cc(O)cc(O)c12` [kaempferol], the “HPLC glucosyltransferase assay, product peak area” value at GSA1^WYJ [1] was “the glucosyltransferase activity of GSA1^A246V toward kaempferol and sinapyl alcohol was comparable”; at GSA1^WYJ [2], “the glucosyltransferase activity of GSA1^A349T was comparable to that of GSA1^CG14”.
In the case of `COc1cc(/C=C/CO)cc(OC)c1O` [sinapyl alcohol], the “HPLC glucosyltransferase assay, product peak area” value was “the glucosyltransferase activity of GSA1^A246V toward kaempferol and sinapyl alcohol was comparable” on GSA1^WYJ [1]; “the glucosyltransferase activity of GSA1^A349T was comparable to that of GSA1^CG14” on GSA1^WYJ [2].

B1: GSA1^WYJ (Oryza sativa Japonica Group) (protein)
chain: MAAPPPPRPQPHVMVLPFPAQGHVMPLMELSHRLVGLGFEVEFVHTDFNRDRVINAMANETGAIPDGIHMVSFPDGMDPAGDRANIAKLGDGLPAAMLGGIEEMIRSEGIRWVIADVSMAWVTELAATVGVHVALFSTYSAAVVAHRLQVPKLIQDGVLDEIGNVRRNEMIQLRPTMPPVLAVELPWVTLSGTPDGRRMVIQNVFKTNPTISSAEVIICNTFQDIEPGALALVPNVLPVGPLEAPATSRLAGHFWPEDTTCLAWLDEQDACSVVYVAFGSFTVFDMARVQELADGLVLSGRPFLWVIRQNFTNGAGEGWLEEFRHRVSGKGMIVGWAPQQSVLSHPSIACFVSHCGWNSTMEGLRHGVPFLCWPYFADQYCNQSYICNVWGTGVKLQADERGVVTKEEIKNKVEQLVDDKEIKARAAKWKHAACTSIAEGGSSHENLLKFVNLLREQ
notes: full-length cDNA in pET21a (NdeI/NotI), E. coli BL21(DE3) pLysS, crude extract; WYJ allele A246, A349
What is called Km is the substrate concentration at which the rate is half of its maximum. B1: the Km in data set [3] came to 25.54 ± 5.43 µM; in data set [4], 51.06 ± 7.814 µM.
